In patent US9216983B2, “Dihydroorotate dehydrogenase inhibitors with selective anti-malarial activity” (BOARD OF REGENTS, UNIVERSITY OF TEXAS SYSTEM, priority 2007, dated 2015):
Read-outs that look alike come from different tables or passages of the source.

Columns and labels:
PbDHODH = PbDHODH (Plasmodium berghei, UniProt A0A509AEH5); assay: DHODH enzyme inhibition assay, PbDHODH; type: biochemical, P. berghei; settings: Table 4, IC50 class
Experimental: (§1) Briefly, the assay solution contained 100 mM HEPES, pH 8.0, 150 mM NaCl, 10% glycerol, 0.1% Triton X-100, 20 micro molar COQD (coenzyme QD), 200 micro molar L-dihydroorotate, and 120 micro molar DCIP. Reactions are initiated by addition of enzyme to a final concentration in the range of about […] to about 50 nM while maintaining the temperature of a circulating water bath at 25° C.
(§2) Assay solutions were prepared as discussed above, except that DCIP is not present and the solution is depleted of oxygen by the inclusion of an oxidase/reductase system, such as, 0.1 mg/ml of glucose oxidase, 0.02 mg/ml catalase and 50 mM glucose. The data obtained is fitted to equation 1, to determine the IC50 values of the representative compounds.

PfDHODH = biological target: T1, PfDHODH (Plasmodium falciparum, UniProt Q08210); assay: biochemical
T1 sequence (Q08210 24-569): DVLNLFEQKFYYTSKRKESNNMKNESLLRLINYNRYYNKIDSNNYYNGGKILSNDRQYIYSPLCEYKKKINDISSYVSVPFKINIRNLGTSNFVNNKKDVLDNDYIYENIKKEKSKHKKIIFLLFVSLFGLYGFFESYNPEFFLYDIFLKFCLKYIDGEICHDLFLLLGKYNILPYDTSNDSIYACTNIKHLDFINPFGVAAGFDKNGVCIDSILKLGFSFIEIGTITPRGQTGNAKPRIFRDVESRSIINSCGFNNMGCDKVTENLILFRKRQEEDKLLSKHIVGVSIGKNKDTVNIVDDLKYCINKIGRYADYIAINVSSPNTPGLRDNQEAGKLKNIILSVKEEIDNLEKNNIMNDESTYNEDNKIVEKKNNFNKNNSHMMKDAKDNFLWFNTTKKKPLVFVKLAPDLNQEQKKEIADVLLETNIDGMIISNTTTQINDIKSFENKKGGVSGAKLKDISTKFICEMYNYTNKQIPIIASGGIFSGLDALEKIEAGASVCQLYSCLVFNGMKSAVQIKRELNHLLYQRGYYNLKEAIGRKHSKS
Experimental: as §1, §2

[1] = Table 4, IC50 class, read-out: PfDHODH
[2] = Table 5, read-out: PfDHODH IC50

Chain of PbDHODH (A0A509AEH5 entry or part of it): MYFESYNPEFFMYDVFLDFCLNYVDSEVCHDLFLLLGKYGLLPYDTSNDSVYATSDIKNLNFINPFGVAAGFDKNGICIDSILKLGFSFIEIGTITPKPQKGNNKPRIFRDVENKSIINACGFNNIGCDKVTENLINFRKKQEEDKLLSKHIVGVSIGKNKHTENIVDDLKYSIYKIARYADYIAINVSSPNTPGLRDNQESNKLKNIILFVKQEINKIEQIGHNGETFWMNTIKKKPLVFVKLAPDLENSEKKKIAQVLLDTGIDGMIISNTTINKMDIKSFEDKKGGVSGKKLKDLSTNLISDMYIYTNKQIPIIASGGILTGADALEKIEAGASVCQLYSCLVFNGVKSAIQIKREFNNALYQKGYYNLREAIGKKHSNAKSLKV

IC50 (PfDHODH; [2]) | SMILES | IC50 (PbDHODH; PbDHODH) | IC50 (PfDHODH; [1]) | further results
– | CCCCCCCCc1ccc(Nc2cc(C)nc3ncnn23)cc1 | > 10000 nM | > 10000 nM | –
– | Cc1cc(Nc2ccccc2Cl)n2ncnc2n1 | > 10000 nM | > 10000 nM | –
116 ± 30 nM | Cc1cc(Nc2ccc3c(c2)CCC3)n2ncnc2n1 | – | – | –
151 nM | Cc1cc(Nc2ccc(I)cc2)n2ncnc2n1 | – | – | –
– | Cc1cc(Nc2ccccc2C(F)(F)F)n2ncnc2n1 | > 10000 nM | > 10000 nM | –
2250 nM | CCc1nc2nc(C)cc(Nc3ccc(OC)cc3)n2n1 | – | – | –
– | CCCCCCc1ccc(Nc2cc(C)nc3ncnn23)cc1 | > 10000 nM | 2000 to 10000 nM | –
6300 ± 950 nM | Cc1cc(Nc2ccc(OCc3ccccc3)cc2)n2ncnc2n1 | – | – | –
– | Cc1cc(Nc2ccccc2F)n2ncnc2n1 | > 10000 nM | > 10000 nM | –
81.4 nM | Cc1cc(Nc2ccc(C)c(C)c2)n2nc(C)nc2n1 | – | – | –
– | Cc1cc(Nc2ccc(N(C)C)cc2)n2ncnc2n1 | > 10000 nM | < 2000 nM | –
990 ± 180 nM | C#Cc1ccc(Nc2cc(C)nc3ncnn23)cc1 | – | – | –
– | Cc1cc(Nc2ccc(Cl)c(C(F)(F)F)c2)n2ncnc2n1 | – | < 2000 nM | IC50 (PbDHODH; read-out: PbDHODH): < 2000 nM
629 nM | Cc1cc(Nc2ccc(C)c(F)c2)n2nc(C)nc2n1 | – | – | –
– | Cc1cc(Nc2c(F)cccc2F)n2ncnc2n1 | > 10000 nM | > 10000 nM | –
– | Cc1cc(Nc2ccc(C#N)cc2)n2ncnc2n1 | – | 2000 to 10000 nM | –
– | Cc1cc(Nc2c(F)c(F)cc(F)c2F)n2ncnc2n1 | > 10000 nM | > 10000 nM | –
> 100000 nM | Cc1cc(Nc2ccc(N3CCOCC3)cc2)n2ncnc2n1 | – | – | –
132 nM | CCCc1nc2nc(C)cc(Nc3ccc(C)c(Cl)c3)n2n1 | – | – | –
117 ± 10 nM | Cc1cc(Nc2ccc(S(F)(F)(F)(F)F)cc2)n2ncnc2n1 | – | – | –
– | Cc1cc(Nc2cccc(F)c2F)n2ncnc2n1 | > 10000 nM | > 10000 nM | –
247 nM | CCCc1nc2nc(C)cc(Nc3cccc(Cl)c3)n2n1 | – | – | –
362 nM | COc1ccc(Nc2cc(C)nc3ncnn23)cc1Cl | – | – | –
– | Cc1cccc(Nc2cc(C)nc3ncnn23)c1 | > 10000 nM | 2000 to 10000 nM | –

IC50 (PfDHODH; [2]) | SMILES | IC50 (PbDHODH; PbDHODH) | IC50 (PfDHODH; [1]) | further results
37.9 nM | CCc1nc2nc(C)cc(Nc3ccc(I)cc3)n2n1 | – | – | –
285 nM | Cc1cc(Nc2cccc(C(F)(F)F)c2)n2nc(C)nc2n1 | – | – | –
– | Cc1cc(Nc2cccc(Cl)c2)n2ncnc2n1 [drawing 35] | – | – | IC50 (PfDHODH; PfDHODH, Table 4, IC50 class): < 2000 nM
– | Cc1cc(Nc2cc(F)ccc2F)n2ncnc2n1 | > 10000 nM | > 10000 nM | –
326 nM | COc1ccc(Nc2cc(C)nc3nc(C)nn23)cc1Cl [drawing 99] | – | – | –
– | Cc1cc(Nc2cc(F)c(F)cc2F)n2ncnc2n1 | > 10000 nM | > 10000 nM | –
– | Cc1cc(Nc2ccccc2C#N)n2ncnc2n1 | > 10000 nM | > 10000 nM | –
– | CCCCCCCc1ccc(Nc2cc(C)nc3ncnn23)cc1 | > 10000 nM | > 10000 nM | –
– | Cc1cc(Nc2ccc(C(C)(C)C)cc2)n2ncnc2n1 | < 2000 nM | < 2000 nM | –
50 ± 8 nM | Cc1cc(Nc2ccc3c(c2)CCCC3)n2ncnc2n1 | – | – | –
– | Cc1cc(Nc2ccc(OC(F)F)cc2)n2ncnc2n1 [drawing 44] | > 10000 nM | < 2000 nM | –
– | Cc1cc(Nc2cccc(Cl)c2)n2ncnc2n1 [drawing 116] | – | – | IC50 (PfDHODH; PfDHODH IC50, Table 5): 566 nM
277 nM | CCCc1nc2nc(C)cc(Nc3ccc(C)c(F)c3)n2n1 | – | – | –
75.2 nM | Cc1cc(Nc2ccc(Cl)c(Cl)c2)n2nc(C)nc2n1 | – | – | –
1390 nM | Cc1cc(Nc2ccc(Cl)c(C)c2)n2nc(C)nc2n1 | – | – | –
375 nM | COc1ccc(Nc2cc(C)nc3nc(C)nn23)cc1Cl [drawing 98] | – | – | –
145 nM | CCc1nc2nc(C)cc(Nc3ccc(F)c(Cl)c3)n2n1 | – | – | –
240 nM | Cc1cc(Nc2ccc(C)c(Cl)c2)n2ncnc2n1 | – | – | –
– | C=Cc1ccc(Nc2cc(C)nc3ncnn23)cc1 | 2000 to 10000 nM | – | –
– | Cc1cc(Nc2ccc(-c3ccccc3)cc2)n2ncnc2n1 | – | 2000 to 10000 nM | –
66.3 nM | CCc1nc2nc(C)cc(Nc3ccc(C)c(F)c3)n2n1 | – | – | –
641 nM | CCc1cccc(Nc2cc(C)nc3ncnn23)c1 | – | – | –
395 nM | CCc1nc2nc(C)cc(Nc3ccc(Br)cc3F)n2n1 | – | – | –
1170 nM | CCc1nc2nc(C)cc(Nc3cccc(C(F)(F)F)c3)n2n1 | – | – | –
